# Experimental data as given in ChEMBL document CHEMBL3044601, “Movento®, an innovative ambimobile insecticide for sucking insect pest control in agriculture: Biological profile and field performance” (Crop Prot, 2009).
# Experiments:
# Myzus persicae [1] = assay: Resistance ratio, LC50 for third instar nymph of carbamates, pyrethroids-resistant Myzus persicae F04-01 (green peach aphid) to LC50 for third instar nymph of Myzus persicae NS; type: functional
# Myzus persicae [2] = assay: Resistance ratio, LC50 for third instar nymph of carbamates, pyrethroids-resistant Myzus persicae JR (green peach aphid) to LC50 for third instar nymph of Myzus persicae NS; type: functional
# Myzus persicae [3] = assay: Insecticidal activity against third-instar nymph of carbamates, pyrethroids-resistant Myzus persicae JR (green peach aphid) in Brassica oleracea leaf disc after 3 days by leaf-dip bioassay; type: functional; conditions: foliar, 72 h
# Myzus persicae [4] = assay: Insecticidal activity against third-instar nymph of Myzus persicae NS (green peach aphid) in Brassica oleracea leaf disc after 3 days by leaf-dip bioassay; type: functional; conditions: foliar, 72 h
# Bemisia tabaci [5] = assay: Resistance ratio, LC50 for second instar nymph of organophosphates-resistant Bemisia tabaci MEX03-02 (sweet potato whitefly) to LC50 for second instar nymph of Bemisia tabaci SUD-S; type: functional
# Bemisia tabaci [6] = assay: Resistance ratio, LC50 for second instar nymph of organophosphates-resistant Bemisia tabaci ISR-02 (sweet potato whitefly) to LC50 for second instar nymph of Bemisia tabaci SUD-S; type: functional
# Bemisia tabaci [7] = assay: Resistance ratio, LC50 for second instar nymph of organophosphates, pyrethroids, buprofezin, pyriproxyfen and pymetrozin-resistant Bemisia tabaci BR-JM03 (sweet potato whitefly) to LC50 for second instar nymph of Bemisia tabaci SUD-S; type: functional
# Bemisia tabaci [8] = assay: Resistance ratio, LC50 for second instar nymph of organophosphates-resistant Bemisia tabaci ESP-00 (sweet potato whitefly) to LC50 for second instar nymph of Bemisia tabaci SUD-S; type: functional
# Bemisia tabaci [9] = assay: Resistance ratio, LC50 for second instar nymph of organophosphates-resistant Bemisia tabaci CRE04-01 (sweet potato whitefly) to LC50 for second instar nymph of Bemisia tabaci SUD-S; type: functional
# Bemisia tabaci [10] = assay: Insecticidal activity against second instar nymph of organophosphates-resistant Bemisia tabaci MEX03-02 (sweet potato whitefly) in cotton plant leaf after 10 days by leaf-dip bioassay; type: functional; conditions: MEX03-02, 240 h
# Bemisia tabaci [11] = assay: Insecticidal activity against second instar nymph of organophosphates-resistant Bemisia tabaci ISR-02 (sweet potato whitefly) in cotton plant leaf after 10 days by leaf-dip bioassay; type: functional; conditions: ISR-02, 240 h
# Bemisia tabaci [12] = assay: Insecticidal activity against second instar nymph of organophosphates, pyrethroids, buprofezin, pyriproxyfen and pymetrozin-resistant Bemisia tabaci BR-JM03 (sweet potato whitefly) in cotton plant leaf after 10 days by leaf-dip bioassay; type: functional; conditions: BR-JM03, 240 h
# Bemisia tabaci [13] = assay: Insecticidal activity against second instar nymph of organophosphates-resistant Bemisia tabaci ESP-00 (sweet potato whitefly) in cotton plant leaf after 10 days by leaf-dip bioassay; type: functional; conditions: ESP-00, 240 h
# Bemisia tabaci [14] = assay: Insecticidal activity against second instar nymph of organophosphates-resistant Bemisia tabaci CRE04-01 (sweet potato whitefly) in cotton plant leaf after 10 days by leaf-dip bioassay; type: functional; conditions: CRE04-01, 240 h
# Myzus persicae [15] = assay: Insecticidal activity against Myzus persicae (green peach aphid) infected first leaf of cabbage plant assessed as phloem-systemic efficacy at 0.032 ug/plant treated with 2 g/L rapeseed oil methylester measured after 7 days on 3rd leaf by phloem mobility bioassay; type: functional
# Myzus persicae [16] = assay: Insecticidal activity against Myzus persicae (green peach aphid) infected first leaf of cabbage plant assessed as phloem-systemic efficacy at 0.16 ug/plant treated with 2 g/L rapeseed oil methylester measured after 7 days on 3rd leaf by phloem mobility bioassay; type: functional
# Myzus persicae [17] = assay: Insecticidal activity against Myzus persicae (green peach aphid) infected first leaf of cabbage plant assessed as phloem-systemic efficacy at 0.8 ug/plant treated with 2 g/L rapeseed oil methylester measured after 7 days on 3rd leaf by phloem mobility bioassay; type: functional
# Myzus persicae [18] = assay: Insecticidal activity against Myzus persicae (green peach aphid) infected first leaf of cabbage plant assessed as phloem-systemic efficacy at 4 ug/plant treated with 2 g/L rapeseed oil methylester measured after 7 days on 3rd leaf by phloem mobility bioassay; type: functional
# Myzus persicae [19] = assay: Insecticidal activity against Myzus persicae (green peach aphid) infected first leaf of cabbage plant assessed as phloem-systemic efficacy at 20 ug/plant treated with 2 g/L rapeseed oil methylester measured after 7 days on 3rd leaf by phloem mobility bioassay; type: functional
# Myzus persicae [20] = assay: Insecticidal activity against Myzus persicae (green peach aphid) infected first leaf of cabbage plant assessed as phloem-systemic efficacy at 100 ug/plant treated with 2 g/L rapeseed oil methylester measured after 7 days on 3rd leaf by phloem mobility bioassay; type: functional
# [21] = Lipophilicity, log P of the compound; type: physicochemical; conditions: octanol/water
# Bemisia tabaci [22] = assay: Insecticidal activity against second instar nymph of Bemisia tabaci SUD-S (sweet potato whitefly) in cotton plant leaf after 10 days by leaf-dip bioassay; type: functional; conditions: 240 h
# Myzus persicae [23] = assay: Insecticidal activity against third-instar nymph of carbamates, pyrethroids-resistant Myzus persicae F04-01 (green peach aphid) in Brassica oleracea leaf disc after 3 days by leaf-dip bioassay; type: functional; conditions: F04-01, foliar, 72 h
# Myzus persicae [24] = assay: Insecticidal activity against adult Myzus persicae (green peach aphid) in Brassica oleracea leaf disc treated with 1 g/L rapeseed oil methylester after 3 days by leaf-dip bioassay; type: functional
# Myzus persicae [25] = assay: Insecticidal activity against first instar nymph of Myzus persicae (green peach aphid) in Brassica oleracea leaf disc treated with 1 g/L rapeseed oil methylester after 3 days by leaf-dip bioassay; type: functional
# [26] = Dissociation constant, pKa of the compound; type: physicochemical
structure (smiles),measurement,setting,value
CCOC(=O)OC1=C(c2cc(C)ccc2C)C(=O)N[C@]12CC[C@@H](OC)CC2 [SPIROTETRAMAT],RatioLC50,Myzus persicae [1],0.4
same,RatioLC50,Myzus persicae [2],0.9
same,LC50,Myzus persicae [3],0.59 µg/mL
same,LC50,Myzus persicae [4],0.69 µg/mL
same,RatioLC50,Bemisia tabaci [5],1.9
same,RatioLC50,Bemisia tabaci [6],2.8
same,RatioLC50,Bemisia tabaci [7],2.5
same,RatioLC50,Bemisia tabaci [8],2.8
same,RatioLC50,Bemisia tabaci [9],3.8
same,LC50,Bemisia tabaci [10],0.49 µg/mL
same,LC50,Bemisia tabaci [11],0.72 µg/mL
same,LC50,Bemisia tabaci [12],0.64 µg/mL
same,LC50,Bemisia tabaci [13],0.74 µg/mL
same,LC50,Bemisia tabaci [14],1 µg/mL
same,Efficacy,Myzus persicae [15],8.8%
same,Efficacy,Myzus persicae [16],22.5%
same,Efficacy,Myzus persicae [17],56.7%
same,Efficacy,Myzus persicae [18],85.6%
same,Efficacy,Myzus persicae [19],100%
same,Efficacy,Myzus persicae [20],100%
same,logP,[21],0.3
same,LC50,Bemisia tabaci [22],0.26 µg/mL
same,LC50,Myzus persicae [23],0.27 µg/mL
same,LC95,Myzus persicae [24],22 ppm
same,LC95,Myzus persicae [25],0.73 ppm
same,pKa,[26],5.2
